Results reported in patent US20030073683A1, “Administration of noncompetitive AMPA receptor antagonist for neuroprotection after traumatic brain injury” (priority 2001, published 2003).
Where two headings read alike, the source gives them in different places.

What was measured:
[1] = test system: global cerebral ischemia in rats; details: cited from earlier work
[2] = test system: global ischemia in gerbils; details: 2.5-5 mg/kg, cited from earlier work
kindled seizures = details: cited from earlier work
flexor reflexes in cats = details: in vivo; cited from earlier work
[3] = test system: conscious male Sprague-Dawley rats; assay: Cardiovascular effects in conscious rats; type: in vivo, rat; details: single oral doses of 0.1, 0.3, 3 or 10 mg/kg; 2 hr
Method: Talampanel was examined for potential cardiovascular effects in conscious male Sprague-Dawley rats for 2 hr, following single oral doses of 0.1, 0.3, 3 or 10 mg/kg. The cardiovascular variables measured included systolic, diastolic and mean arterial pressure, arterial pulse pressure, and heart rate. […] Thus, taken together, these in vitro and in vivo studies makes AMPA antagonists and specifically talampanel attractive candidates for a number of therapeutic indications (data not shown).

[4] = test system: phenytoin-resistant status epilepticus; details: in vivo; cited from earlier work
[5] = test system: fluid-percussion brain injury; assay: Fluid-percussion brain injury in rats: normal pyramidal neuron counts in hippocampus; type: in vivo, rat
Text: (§1) Rat Model. Fasted male Sprague-Dawley rats, weighing 290-390 g were employed. The animals were initially anesthetized with 3% halothane, 70% nitrous oxide, and a balance of oxygen. Rats were positioned in a stereotaxic frame following endotracheal intubation. A 4.8-mm craniotomy was made overlying the right parietal cortex (3.8 mm posterior to bregma and 2.5 mm lateral to midline) as previously described by Belayev et al., J. Neurotrauma, 16: 445-453 (1999) and Dietrich et al., J. Neuropathol. (Beri.) 87: 250-258 (1994). Next, a plastic injury tube was positioned over the exposed dura matter. Dental acrylic was then used to bond the injury tube to surrounding structures. After the acrylic had hardened, the injury tube was plugged with a Gelfoam sponge, the scalp closed with sutures, and the animal was returned to its cage and allowed to recover overnight.
(§2) Fluid-Percussion Brain Injury. The following day, the rats were reanesthetized with halothane, orotracheally intubated, and maintained on 70% nitrous oxide, 1.5% halothane, and a balance of oxygen. Temperature probes were inserted into the rectum (CMA/150 Temperature Controller, CMA/Microdialysis AB, Stockholm, Sweden) and the left temporalis muscle (Thermocouple Probe, Omega Engineering, Stanford, Conn.), and separate heating lamps were used to maintain rectal temperature and temporalis muscle temperature at 37.0-37.5° C. The right femoral artery and vein were catheterized for continuous blood pressure monitoring and periodic blood sampling for arterial gases, pH, hematocrit, and plasma glucose (measurements taken 15 min before TBI and 15 min after TBI). Rectal temperature and body weight was monitored before trauma and periodically for 7 days after trauma. Mean arterial blood pressure (MABP) was measured via an indwelling femoral arterial catheter connected to a precalibrated Statham pressure transducer (model P23XL, Viggo-Spectramed Inc., Oxnard, Calif., USA) and was recorded continuously (model RS3400 polygraph, Gould, Inc., Valley View, Ohio, USA). Serial measurements were made of arterial blood gases and pH (model ABL 330, Radiometer America, Inc. Westlake, Ohio, USA) and plasma glucose (model 2300 Stnt; Yellow Springs Instrument Co., Inc., Yellow Springs, Ohio, USA).
(§3) A fluid-percussion device was connected to the injury tube of the rat's skull. This device consisted of a saline-filled cylindrical Plexiglas reservoir having a rubber-coated piston at one end, a transducer housing to permit measurement of pressure transients, and a connecting device adapted to the rat's skull. Injury was induced by the descent of a pendulum, conveying a pressure transient of 1.5-2.0 atm. to the right dorsolateral parietal cortex (see Dietrich et al., J. Neuropathol. (Beri.), 87: 250-258 (1994)). Sham-operated animals (n=9) underwent similar surgical procedures but were not injured.
(§4) Drug-Infusion System. The femoral-vein cannula was tunneled subcutaneously so as to exit from the dorsal neck and was connected to a swivel device (Stoelting Co., Wood Dale, Ill., USA) attached to the roof of a spacious cage. This device allowed bi-directional rotation. PE-50 tubing extending from the other end of the device was joined to a disposable syringe attached to an infusion pump (KDS-100, KD Scientific, Boston, Mass., USA). This tethering system allowed the rats free movement without interfering with the patency of the cannula during drug administration.
(§5) Drug Administration. Talampanel (Lilly Research Laboratories, Indianapolis, Ind., USA; bolus infusion of 4 mg/kg followed by infusion of 4 mg/kg/h over 72 hr) or vehicle (40% 2-hydroxylpropyl-β-cyclodextrin solution, 0.3-ml bolus plus 0.3 ml/kg/hr over 72 hr) was administered I.V. beginning 30 min or 3 hr after trauma or sham operation.
Histopathology of Hippocampus. […]

[6] = test system: fluid-percussion brain injury; assay: Fluid-percussion brain injury in rats: histopathological contusion areas; type: in vivo, rat; details: for reduction of mean contusion area vs vehicle-treated rats: 4 mg/kg bolus + 4 mg/kg/h over 72 hr I.V.
Text: as §1, §2, §3, §4, §5
Histopathological Analysis of Brain Trauma. Animals were allowed to survive for 7 days following fluid-percussion brain injury. […]

[7] = test system: severe epilepsy not responsive to other drugs; details: patients with severe epilepsy not responsive to other drugs; cited from earlier work
rats = assay: Preliminary experiment with continuous infusion in rats (clinical signs); type: in vivo, rat; details: doses of 8 and 10 mg/kg (5, 8 or 10 mg/kg tested)
Method: The dosage was chosen because talampanel has been studied in vivo in a gerbil model of global ischemia (Lodge et al., Neuropharmacology, 35: 1681-1688 (1996)). […] Therefore, the dose was reduced to about 5 mg/kg.

Sprague-Dawley rats = details: rat, in vivo
Text: Fluid-Percussion Brain Injury. The following day, the rats were reanesthetized with halothane, orotracheally intubated, and maintained on 70% nitrous oxide, 1.5% halothane, and a balance of oxygen. Temperature probes were inserted into the rectum (CMA/150 Temperature Controller, CMA/Microdialysis AB, Stockholm, Sweden) and the left temporalis muscle (Thermocouple Probe, Omega Engineering, Stanford, Conn.), and separate heating lamps were used to maintain rectal temperature and temporalis muscle temperature at 37.0-37.5° C. The right femoral artery and vein were catheterized for continuous blood pressure monitoring and periodic blood sampling for arterial gases, pH, hematocrit, and plasma glucose (measurements taken 15 min before TBI and 15 min after TBI). Rectal temperature and body weight was monitored before trauma and periodically for 7 days after trauma. Mean arterial blood pressure (MABP) was measured via an indwelling femoral arterial catheter connected to a precalibrated Statham pressure transducer (model P23XL, Viggo-Spectramed Inc., Oxnard, Calif., USA) and was recorded continuously (model RS3400 polygraph, Gould, Inc., Valley View, Ohio, USA). Serial measurements were made of arterial blood gases and pH (model ABL 330, Radiometer America, Inc. Westlake, Ohio, USA) and plasma glucose (model 2300 Stnt; Yellow Springs Instrument Co., Inc., Yellow Springs, Ohio, USA). […]

[8] = treatment begun at 3 hr after trauma

## CC1=NN=C(c2ccc(N)cc2)c2cc3c(cc2C1)OCO3 [GYKI 52466, 1-(4-aminophenyl)-4-methyl-7,8-methylene-dioxy-5H-2,3-benzodiazepine]
[1]; drug pretreatment but not posttreatment
  neuronal damage in the CA1 sector of the hippocampus: significantly attenuated
[1]; pretreatment or posttreatment
  striatal neuronal damage: not affected by either drug treatment
[1]; pretreatment vs posttreatment
  functional deficits (learned maze responses): pretreatment but not posttreatment reduced functional deficits

## CC(=O)N1N=C(c2ccc(N)cc2)c2cc3c(cc2C[C@H]1C)OCO3 [talampanel, (R)-7-acetyl-5-(4-aminophenyl)-8,9-dihydro-8-methyl-7H-1,3-dioxolo [4,5-h][2,3]benzodiazepine]
[2]
  survival of hippocampal CA1 neurons / neuroprotection after global ischemia: significantly neuroprotective
[2]; listed as Talampanel
  survival of hippocampal CA1 neurons / neuroprotection after global ischemia: led to survival of hippocampal CA1 neurons
Kindled seizures; 12.5 mg/kg
  chemically kindled seizures: suppressed chemically kindled seizures
Kindled seizures; 20 mg/kg
  electrically kindled seizures: suppressed
Flexor reflexes in cats
  flexor reflexes: inhibited flexor reflexes
[3]
  systolic, diastolic and mean arterial pressure, arterial pulse pressure, heart rate: No changes were observed
[4]
  seizures in status epilepticus: arrested seizures in a dose-related manner
[5]; sham animals, vehicle or talampanel (30 min or 3 hr)
  numbers of normal neurons in CA1 and CA3 sectors of sham animals: identical in all groups
[5]; treatment 30 min after trauma
  survival of pyramidal neurons in the CA1 sector of hippocampus: increased survival
[5]; treatment at 30 min
  numbers of normal neurons in CA3 sector, statistical comparison with vehicle: did not differ statistically between groups
[5]; treatment begun at 3 hr
  normal pyramidal-neuron counts CA1 vs vehicle: almost identical in both groups
  normal pyramidal-neuron counts in the hippocampal CA3 sector vs vehicle: did not differ between groups
[5]; treatment starting at 30 min
  ischemic damage in all three subsectors of the hippocampal CA1 sector vs vehicle: significantly attenuated ischemic damage
[6]; bregma level −5.8 mm, treatment 30 min after trauma, 7 days after trauma
  reduction of mean contusion area vs vehicle-treated rats: 85%
[6]; bregma level −6.8 mm, treatment 30 min after trauma, 7 days after trauma
  reduction of mean contusion area vs vehicle-treated rats: 97%
[6]; treatment 30 min after trauma, 7 days after trauma
  reduction of total contusion area vs vehicle-treated rats: 70%
[6]; treatment 30 min after trauma, moderate fluid-percussion brain injury
  overall contusion volume: significant reduction
[6]; treatment 30 min after trauma, vs vehicle-treated rats
  contusion foci in brain sections (photomicrographs): smaller contusion foci, typically confined to the deeper cortical layers
[6]; treatment begun at 3 hr
  neuroprotective effect: lost
[6]; [8]
  contusion area at bregma levels vs vehicle-treated rats: reduced only at one bregma level (−6.8 mm)
  total contusion area, statistical comparison with vehicle-treated rats: did not differ statistically
[7]
  clinical outcome in patients: positive results
rats
  clinical signs: clinical signs of ataxia
Sprague-Dawley rats
  mortality: None of the animals died
  rectal and cranial temperatures, arterial blood gases, plasma glucose, arterial blood pressure, body weight: no significant differences between groups
